Reference: US5550110A, “Endothelin Antagonists II” (Warner-Lambert Company, priority 1994, dated 1996)
Square brackets hold non-standard residues; d marks the D form. Peptide text beside a SMILES is read from it. * marks the point of attachment. dGly(5-dibenzosuberyl) = N[C@@H](C(=O)O)C1c2ccccc2CCc2ccccc21; For = O=C*

Assays:
[1] = target: T1, endothelin receptor (ETB), rat cerebellar membranes (Rattus norvegicus, UniProt P21451); assay: Endothelin Receptor Binding Assay-B (ERBA-B), [125I]-ET-1 binding in rat cerebellar membranes; settings: [125I]-ET-1 25 pM, read-out: ERRA-B IC50
T1 construct: thaw one aliquot of frozen rat cerebellar membranes (2 mg protein in 0.5 mL); from tissue; host or cells: rat cerebellum (membranes)
T1 sequence (P21451 27-442): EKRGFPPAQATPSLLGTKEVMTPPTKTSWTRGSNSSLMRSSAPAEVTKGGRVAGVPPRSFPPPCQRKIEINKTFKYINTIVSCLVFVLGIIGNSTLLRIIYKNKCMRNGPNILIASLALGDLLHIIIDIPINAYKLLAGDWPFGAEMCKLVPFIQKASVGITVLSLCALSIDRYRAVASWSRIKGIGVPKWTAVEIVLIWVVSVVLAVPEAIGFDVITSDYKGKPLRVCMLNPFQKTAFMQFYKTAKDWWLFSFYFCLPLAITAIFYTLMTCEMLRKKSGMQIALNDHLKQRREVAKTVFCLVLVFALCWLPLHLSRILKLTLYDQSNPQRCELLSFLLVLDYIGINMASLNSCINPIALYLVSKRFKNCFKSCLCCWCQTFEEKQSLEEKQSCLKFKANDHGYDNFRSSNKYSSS
Experimental: Endothelin Receptor Binding Assay-B (ERBA-B) [^125 I]-ET-1 Binding in Rat Cerebellar Membranes
The tissue is made up of 20 mM tris(hydroxymethyl)aminomethane hydrochloride (Trizma) buffer, 2 mM ethylenediaminetetra acetate, 100 μM phenylmethylsulfonyl fluoride.
First, thaw one aliquot of frozen rat cerebellar membranes (2 mg protein in 0.5 mL). Next, add 0.5 mL membrane aliquot to 4.5 mL cold tissue buffer, polytron at 7,500 revolutions per minute for 10 seconds. Finally, dilute tissue suspension 1/100 (0.1 mL suspension+9.9 mL tissue buffer), polytron again, and place ice.
Medium 199 with Hank's salts plus 25 mM Hepes+1 mg/mL bovine serum albumin.
Amersham [^125 I]-ET-1 (aliquots of 2×10^6 cpm per […] aliquot of [^125 I]-ET-1 with 5.2 mL dilution buffer, place on ice until use (final concentration will be 20,000 cpm per tube, or 25 pM).
Add 50 μL each of cold [^125 ]-ET-1 and competing ligand to tubes on ice. Mix in 150 μL of tissue to each tube, vortex briefly, then tap to force all liquids to bottom (total assay volume=250 μL). Then place the tubes in a 37° C. water bath for 2 hours.
Add 2.5 mL cold wash buffer (50 mM Trizma buffer) to each tube, filter, and then wash tube with additional 2.5 mL wash buffer and add to filter. Finally, wash filters with an additional 2.5 mL of cold wash buffer.
Count filters for radioactivity in gamma counter.

[2] = test system: endothelin receptor, cultured rabbit renal artery vascular smooth muscle cells; assay: Inhibition of ET-1 stimulated arachidonic acid release (AAR-A); format: cell-based; settings: ET-1 0.3 nM
Experimental: (§1) In Vitro Inhibition of ET-1 Stimulated Arachidonic Acid Release in Cultured Rabbit Vascular Smooth Muscle Cells (AAR-A) or CHO Cells Expressing Rat Recombinant ETB Receptor (AAR-B) by Compounds of Formula I
(§2) Antagonist activity is measured by the ability of added compounds to reduce endothelin-stimulated arachidonic acid release in cultured vascular smooth muscle cells as arachidonic acid release (AAR). [^3 H] Arachidonic Acid Loading Media (LM) is DME/F12+0.5% fetal calf serum (FCS)×0.25 mCi/mL [^3 H] arachidonic acid (Amersham). Confluent monolayers of cultured rabbit renal artery vascular smooth muscle cells (AAR-A) or CHO cells expressing rat recombinant ETB receptor (AAR-B) were incubated in 0.5 mL of the LM over 18 hours, at 37° C., in 5% CO2. The LM was aspirated and the cells were washed once with the assay buffer (Hank's balanced salt solution [BSS]+10 mM HEPES+fatty acid-free BSA (1 mg/mL)), and incubated for 5 minutes with 1 mL of the prewarmed assay buffer. This solution was aspirated, followed by an additional 1 mL of prewarmed assay buffer, and further incubated for another 5 minutes. A final 5-minute incubation was carried out in a similar manner. The same procedure was repeated with the inclusion of 10 μL of the test compound (1 nM to 1 μM) and 10 μL ET-1 (0.3 nM) and the incubation was extended for 30 minutes. This solution was then collected, […] of scintillation cocktail was added, and the amount of [^3 H] arachidonic acid was determined in a liquid scintillation counter.

[3] = test system: endothelin receptor (ETA), rabbit renal artery vascular smooth muscle cells; assay: Endothelin Receptor Binding Assay-A (ERBA-A), intact cell binding of [125I]-ET-1; settings: [125I]-ET-1 25 pM
Experimental: The compounds of Formula I are valuable antagonists of endothelin. […] Thus, the compounds of Formula I were tested for their ability to inhibit [^125 I]-ET-1([^125 I]-Endothelin-1) binding in a receptor assay according to the following procedures: Endothelin Receptor Binding Assay-A (ERBA-A) Intact Cell Binding of [^125 I]-ET-1 The cells used were rabbit renal artery vascular smooth muscle cells grown in a 48-well dish (1 cm^2) (confluent cells). The assay buffer was a medium 199 containing Hanks salts and 25 mM Hepes buffer (Gibco 380-2350AJ), supplemented with penicillin/streptomycin/fungizone (0.5%) and bovine serum albumin (1 mg/mL). Amersham radioiodinated endothelin-1 [^125 I]-ET-1 was used at final concentration of 20,000 cpm/0.25 mL (25 pM). […] Second, remove the assay buffers, place the dish on ice, and add 150 μL of cold assay buffer described above to each well. Third, add […] each of cold [^125 I]-ET-1 and competing ligand to the solution (at the same time if possible). Next, place dish in a 37° C. water bath for about 2 hours and gently agitate the dish every 15 minutes. Discard the radioactive incubation mixture in the sink and wash wells 3 times with 1 mL of cold phosphate buffered saline. Last, add […] of 0.25 molar sodium hydroxide, agitate for 1 hour on a rotator, and then transfer the sodium hydroxide extract to gamma counting tubes and count the radioactivity.

[4] = target: T2, rat recombinant ETB receptor (CHO cells) (Rattus norvegicus, UniProt P21451); assay: Inhibition of ET-1 stimulated arachidonic acid release (AAR-B); format: cell-based; settings: ET-1 0.3 nM
T2 construct: expressed in transfected cells; host or cells: CHO cells
T2 sequence (P21451 27-442): T1 sequence (P21451 27-442)
Experimental: as §1, §2

CC[C@H](C)[C@H](NC(=O)[C@H](CC(=O)O)NC(=O)[C@H](CC(C)C)NC(=O)[C@@H](N)C1c2ccccc2CCc2ccccc21)C(=O)N[C@H](C(=O)N[C@@H](Cc1c[nH]c2ccccc12)C(=O)O)[C@@H](C)CC [Example 3, L-Bhg-Leu-Asp-Ile-Ile-Trp] (HELM PEPTIDE1{[N[C@H](C(=O)[*:2])C1c2ccccc2CCc2ccccc21].L.D.I.I.W}$$$$V2.0)
IC50 [1]: 3000 nM
IC50 [2]: 2360 nM
IC50 [3]: 2500 nM

CC[C@H](C)[C@H](NC(=O)[C@H](CC(=O)O)NC(=O)[C@H](CC(C)C)NC(=O)[C@@H](NC(C)=O)C1c2ccccc2CCc2ccccc21)C(=O)N[C@H](C(=O)N[C@@H](Cc1c[nH]c2ccccc12)C(=O)O)[C@@H](C)CC [Example 4, Ac-L-Bhg-Leu-Asp-Ile-Ile-Trp] (HELM PEPTIDE1{[ac].[O=C([C@@H](N[*:1])C1c2ccccc2CCc2ccccc21)[*:2]].L.D.I.I.W}$$$$V2.0)
IC50 [1]: 710 nM

CC[C@H](C)[C@H](NC(=O)[C@H](CC(=O)O)NC(=O)[C@H](CC(C)C)NC(=O)[C@H](NC(C)=O)C1c2ccccc2Sc2ccccc21)C(=O)N[C@H](C(=O)N[C@@H](Cc1c[nH]c2ccccc12)C(=O)O)[C@@H](C)CC [Example 5, Ac-D-Txg-Leu-Asp-Ile-Ile-Trp] (HELM PEPTIDE1{[ac].[O=C([C@H](N[*:1])C1c2ccccc2Sc2ccccc21)[*:2]].L.D.I.I.W}$$$$V2.0)
IC50 [1]: 180 nM
IC50 [4]: 62 nM
IC50 [2]: 50 nM
IC50 [3]: 18 nM

CC[C@H](C)[C@H](NC(=O)[C@H](CC(=O)O)NC(=O)[C@H](CC(C)C)NC(=O)[C@@H](NC(C)=O)C1c2ccccc2Oc2ccccc21)C(=O)N[C@H](C(=O)N[C@@H](Cc1c[nH]c2ccccc12)C(=O)O)[C@@H](C)CC [Example 9, Ac-L-Oxn-Leu-Asp-Ile-Ile-Trp] (HELM PEPTIDE1{[ac].[O=C([C@@H](N[*:1])C1c2ccccc2Oc2ccccc21)[*:2]].L.D.I.I.W}$$$$V2.0)
IC50 [1]: 930 nM
IC50 [3]: 50 nM

CC[C@H](C)[C@H](NC(=O)[C@H](CC(=O)O)NC(=O)[C@H](CC(C)C)NC(=O)[C@H](NC(C)=O)C1c2ccccc2Oc2ccccc21)C(=O)N[C@H](C(=O)N[C@@H](Cc1c[nH]c2ccccc12)C(=O)O)[C@@H](C)CC [Example 10, Ac-D-Oxn-Leu-Asp-Ile-Ile-Trp] (HELM PEPTIDE1{[ac].[O=C([C@H](N[*:1])C1c2ccccc2Oc2ccccc21)[*:2]].L.D.I.I.W}$$$$V2.0)
IC50 [1]: 550 nM
IC50 [3]: 120 nM

CC[C@H](C)[C@H](NC(=O)[C@H](CC(=O)O)NC(=O)[C@H](CC(C)C)NC(=O)[C@@H](N)C1c2ccccc2Sc2ccccc21)C(=O)N[C@H](C(=O)N[C@@H](Cc1c[nH]c2ccccc12)C(=O)O)[C@@H](C)CC [Example 11, L-Txg-Leu-Asp-Ile-Ile-Trp] (HELM PEPTIDE1{[N[C@H](C(=O)[*:2])C1c2ccccc2Sc2ccccc21].L.D.I.I.W}$$$$V2.0)
IC50 [1]: 2100 nM
IC50 [3]: 4500 nM

CC[C@H](C)[C@H](NC(=O)[C@H](CC(=O)O)NC(=O)[C@H](CC(C)C)NC(=O)[C@@H](NC(C)=O)C1c2ccccc2Sc2ccccc21)C(=O)N[C@H](C(=O)N[C@@H](Cc1c[nH]c2ccccc12)C(=O)O)[C@@H](C)CC [Example 12, Ac-L-Txg-Leu-Asp-Ile-Ile-Trp] (HELM PEPTIDE1{[ac].[O=C([C@@H](N[*:1])C1c2ccccc2Sc2ccccc21)[*:2]].L.D.I.I.W}$$$$V2.0)
IC50 [1]: 2100 nM
IC50 [3]: 1500 nM

CC[C@H](C)[C@H](NC(=O)[C@H](CC(=O)O)NC(=O)[C@H](CC(C)C)NC(=O)[C@H](N)C1c2ccccc2Sc2ccccc21)C(=O)N[C@H](C(=O)N[C@@H](Cc1c[nH]c2ccccc12)C(=O)O)[C@@H](C)CC [Example 13, D-Txg-Leu-Asp-Ile-Ile-Trp] (HELM PEPTIDE1{[N[C@@H](C(=O)[*:2])C1c2ccccc2Sc2ccccc21].L.D.I.I.W}$$$$V2.0)
IC50 [1]: 380 nM
IC50 [4]: 2400 nM
IC50 [2]: 320 nM
IC50 [3]: 830 nM

CC[C@H](C)[C@H](NC(=O)[C@H](CC(=O)O)NC(=O)[C@H](CCCN=C(N)N)NC(=O)[C@H](NC(C)=O)C1c2ccccc2CCc2ccccc21)C(=O)N[C@H](C(=O)N[C@@H](Cc1c[nH]c2ccccc12)C(=O)O)[C@@H](C)CC [Example 14, Ac-D-Bhg-Arg-ASp-Ile-Ile-Trp] (HELM PEPTIDE1{[ac].[O=C([C@H](N[*:1])C1c2ccccc2CCc2ccccc21)[*:2]].R.D.I.I.W}$$$$V2.0)
IC50 [1]: 40 nM

CC[C@H](C)[C@H](NC(=O)[C@@H](NC(=O)[C@H](CC(=O)O)N(C)C(=O)[C@H](CC(C)C)NC(=O)[C@H](NC(C)=O)C1c2ccccc2CCc2ccccc21)[C@@H](C)CC)C(=O)N[C@@H](Cc1c[nH]c2ccccc12)C(=O)O [Example 15, Ac-D-Bhg-Leu-N-MeAsp-Ile-Ile-Trp] (HELM PEPTIDE1{[ac].[O=C([C@H](N[*:1])C1c2ccccc2CCc2ccccc21)[*:2]].L.[meD].I.I.W}$$$$V2.0)
IC50 [1]: 1900 nM

CC[C@H](C)[C@H](NC(=O)[C@H](Cc1ccccc1)NC(=O)[C@H](CC(=O)O)NC(=O)[C@H](CC(C)C)NC(=O)[C@H](NC(C)=O)C1c2ccccc2CCc2ccccc21)C(=O)N[C@@H](Cc1c[nH]c2ccccc12)C(=O)O [Example 17, Ac-D-Bhg-Leu-Asp-Phe-Ile-Trp] (HELM PEPTIDE1{[ac].[O=C([C@H](N[*:1])C1c2ccccc2CCc2ccccc21)[*:2]].L.D.F.I.W}$$$$V2.0)
IC50 [1]: 30 nM
IC50 [3]: 68 nM

CC[C@H](C)[C@H](NC(=O)[C@H](CC(=O)O)NC(=O)[C@H](CCCNC(=N)N)NC(=O)[C@H](NC(C)=O)C1c2ccccc2CCc2ccccc21)C(=O)N[C@H](C(=O)N[C@@H](Cc1cn(C=O)c2ccccc12)C(=O)O)[C@@H](C)CC [Example 18, Ac-D-Bhg-Arg-Asp-Ile-Ile-Trp(For)] (Ac-[dGly(5-dibenzosuberyl)]RDIIW(For)-OH)
IC50 [1]: 4900 nM
IC50 [3]: 79 nM
